According to paper PMC8297402, “Trifluoromethyl-substituted 3,5-bis(arylidene)-4-piperidones as potential anti-hepatoma and anti-inflammation agents by inhibiting NF-кB activation” (Journal of Enzyme Inhibition and Medicinal Chemistry, 2021):
Where two headings read alike, the source gives them in different places.

Legend:
female ICR mice = assay: Acute toxicity study, 14 days intragastric administration; assay type: in vivo; details: for Liver tissue morphology, HE staining: intragastric
Method: Preliminary safety evaluation of BAP 16 […]
(§1) Acute Toxicity Studies: Animal experiments were reviewed and approved by the Binzhou Medical University Experimental Animal Committee. The acute toxicity study was investigated on the six-week-old female ICR mice (n = 30) weighing 18-22 grams (Jinan Pengyue Experimental Animal Breeding Co., Ltd.). Briefly, mice were randomly divided into three groups (n = 10/group) and administrated the BAP 16 or solvent. The three groups of mice were treated with intragastric administration of 300 mg/kg, 600 mg/kg of BAP 16 and vehicle (saline containing 0.5% CMC-Na) each day. The body weight of mice was recorded every day, and the toxicity and death of mice were monitored daily for up to day 14. On day 14, the surviving animals were dissected to observe whether the internal organs had visible tissue changes, and then the livers were taken for formaldehyde fixation, dehydration, embedding, sectioning, and HE staining. The cell images were taken using a light microscopy (Olympus, Tokyo, Japan).
During the 14 days of intragastric administration, the food and water intakes of all three groups […]
eosinophilic changes, and edema (Figure S1).
Figure S1. The morphology of the liver tissues after the photo by HE staining. (A) In the control group, the hepatic lobular cells were normal without edema and degeneration. (B) In the 300 mg/kg […]
nucleus stained deeper. […] (C) […]
smaller and the color of nucleus became deeper. There were obvious eosinophilic changes and […]
(1 picture or pasted object on this page, not shown here)

p-IκBα = assay: Western blot, LPS-stimulated phosphorylation of IκBα in RAW264.7 cells; assay type: cell-based, mouse; details: RAW264.7, 1.0, 2.0, 4.0 μM, LPS 1.0 μg/mL 30 min
From the text: (§2) Primary antibodies (anti-Bax, Abcam, ab32503; anti-Bcl-2, Abcam, ab194583; anti-Cleaved caspase-3, Abcam, ab2302; anti-p65, Cell Signalling Technology, 8242S; anti-p-p65, Cell Signalling Technology, 3033S; anti-IκBα, Cell Signalling Technoligy, 4812S; anti-p-IκBα, Cell Signalling Technology, 2859S; anti-p38, Cell Signalling Technology, 8690S; anti-p-p38, Cell Signalling Technology, 4511S; anti-JNK, Cell Signalling Technology, 9258 T; anti-p-JNK, Santa Cruz Biotechnology, sc-6254; anti-GAPDH, Abcam, ab181602), and goat anti-rabbit IgG/HRP secondary antibodies (Cell Signalling Technology, 98164 s) were purchased and used according to the manufacturer’s instructions. HepG2 cell lines were incubated with different doses of BAP 16 (1.0, 2.0, 4.0 μM) for 24 h (Bax, Cleaved caspase-3, Bcl-2). RAW264.7 cells were incubated with BAP 16 for 1 h, then treated with LPS (1.0 μg/mL) for 30 min. Afterward cell extraction was performed and extracts were used for Western blot analysis. Next, 30 μg protein of cell lysates were separated by 12% SDS-PAGE gel. The proteins were then transferred onto nitrocellulose membranes. […] By using Quantity One software (Bio-Rad), western blotting results were quantified from more than three separate experiments.

HepG2 = assay: Modified MTT cytotoxicity assay, HepG2; assay type: cell-based, Human; details: for IC50: Homo sapiens; for SI (selectivity index) HepG2: quotient of IC50 for normal (LO2) and malignant (HepG2) cells
In short: (§3)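 HepG2 grown in DMEM, SMMC-7721 and LO2 in RPMI 1640, each with 10% FBS; ~8 × 10^3 cells/well. Compounds at 0.3125-10 μg/mL for 24 h at 37 °C, then MTT for 4 h. IC50 as mean of three replicates.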

Bcl-2 = assay: Western blot, Bcl-2 expression in HepG2 cells; assay type: cell-based, Human; details: HepG2, 1.0, 2.0, 4.0 μM, 24 h
From the text: as §2

p-JNK = assay: Western blot, LPS-induced phosphorylation of JNK in RAW264.7 cells; assay type: cell-based, mouse; details: RAW264.7, 1.0, 2.0, 4.0 μM, LPS 1.0 μg/mL 30 min
From the text: as §2

SMMC-7721 = assay: Modified MTT cytotoxicity assay, SMMC-7721; assay type: cell-based, Human; details: for SI (selectivity index) SMMC-7721: quotient of IC50 for normal (LO2) and malignant (SMMC-7721) cells
In short: as §3

Bax = assay: Western blot, Bax expression in HepG2 cells; assay type: cell-based, Human; details: HepG2, 1.0, 2.0, 4.0 μM, 24 h
From the text: as §2

in vitro = assay type: cell-based; details: human
Method: aThe letters SI refer to the selectivity index which is the quotient of the IC50 values for normal and […]
Preliminary safety evaluation of BAP 16
Toxicity test on normal non-liver cell lines: To validate the safety of BAP 16, one Human embryonic lung fibroblasts cell line (HFL1), one human embryonic kidney cell line (HEK293), and one human normal lung bronchial epithelial cell line (BEAS-2B) were tested using a modified MTT assay (Dojindo Laboratories, Tokyo, Japan). F12K medium containing 10% FBS was used for culturing the HFL1 cell line, DMEM medium containing 10% FBS and 1.5 g/L sodium bicarbonate was used for culturing the HEK293 cell line, and the BEAS-2B special medium was used for culturing BEAS-2B cell line. The remaining operations were consistent with the previous […]
human normal non-heptical cell lines (HFL1, HEK293 and BEAS-2B), which was similar to that of human normal heptical cell lines.
Table S2. Toxicity test of BAP 16 on normal non-heptical cell lines. […]
as §1

[1] = mice, intragastric, 300, 600 mg/kg/d, 14 days

## O=C1C(=Cc2cccc(C(F)(F)F)c2)CN(S(=O)(=O)c2ccc(C(F)(F)F)cc2)CC1=Cc1cccc(C(F)(F)F)c1 [BAP 16]
Female ICR mice; cell and acute toxicity studies together
  Overall toxicity conclusion: low overall toxicity
Female ICR mice; mice, 300 mg/kg group, day 14
  Liver tissue morphology, HE staining: some liver cells became smaller
Female ICR mice; mice, 600 mg/kg group, day 14
  Liver tissue morphology, HE staining: the cytoplasm of mouse liver was dehydrated seriously
Female ICR mice; [1]
  Body weight: increased slightly
  Food and water intakes: normal
  Toxic reaction observed during administration: no obvious toxic reaction was observed
Female ICR mice; mice, intragastric, 300, 600 mg/kg/d, day 14
  Liver tissue changes, HE staining: dose-related toxic changes
p-IκBα
  Expression level of p-IκBα: significantly decreased in a dose-dependent manner
HepG2; HepG2, 24 h, MTT, 24 h incubation, three replicates, read-out: Cytotoxicity IC50 HepG2
  IC50: ~0.6 µM
HepG2; HepG2, average of HepG2 and SMMC-7721, read-out: Cytotoxicity against HCC cells, average
  IC50: 0.9 µM
HepG2; average of SI for HepG2 and SMMC-7721
  SI value, average: 22.3
HepG2
  SI (selectivity index) HepG2: ca. 29.7
HepG2; listed as 16
  SI (selectivity index) HepG2: 29.7
Bcl-2
  Expression of anti-apoptotic protein Bcl-2: decreased in a dose-dependent manner
p-JNK
  Expression level of p-JNK: significantly decreased
SMMC-7721; Homo sapiens, SMMC-7721, 24 h, MTT, 24 h incubation, three replicates
  IC50: ~1.2 µM
SMMC-7721
  SI (selectivity index) SMMC-7721: ca. 14.8
SMMC-7721; listed as 16
  SI (selectivity index) SMMC-7721: 14.8
Bax
  Expression of pro-apoptotic protein Bax: significantly increased
In vitro; Cytotoxicity IC50 BEAS-2B
  IC50: 17.6 ± 2.53 µM
In vitro; Cytotoxicity IC50 HEK293
  IC50: 7.19 ± 0.91 µM
In vitro; Cytotoxicity IC50 HFL1
  IC50: 9.62 ± 1.52 µM
